ChEMBL document CHEMBL1121488, “Effects of phosphonium compounds on Schistosoma mansoni” (1980)

How the values were obtained:
Schistosoma mansoni [1] = test: Percentage reduction in carbachol response on Schistosoma mansoni; assay type: functional
Schistosoma mansoni [2] = test: Effect on the carbachol-induced paralytic response on Schistosoma mansoni at 10E-4 (phosphonium treated); assay type: functional; set-up: unit not given here
Schistosoma mansoni [3] = test: Probability that there was effect on carbachol response; assay type: functional
Schistosoma mansoni [4] = test: Probability that the compound had no effect on carbachol response; NS = no significant; assay type: functional, organism-based

Structure (SMILES): Br.Br.CCCCCNCCC[PH](c1ccccc1)(c1ccccc1)c1ccccc1
- Reduction (Schistosoma mansoni [1]): 58.2%
- Activity (Schistosoma mansoni [2]): -31.8
- Probability (Schistosoma mansoni [3]): <0.001

Structure (SMILES): CC[P+](c1ccccc1)(c1ccccc1)c1ccccc1.[Br-] [ETHYLTRIPHENYLPHOSPHONIUM BROMIDE]
- Reduction (Schistosoma mansoni [1]): 27%
- Activity (Schistosoma mansoni [2]): -63.8
- Probability (Schistosoma mansoni [3]): <0.02

Structure (SMILES): Br.Br.CCCCNCCC[PH](c1ccccc1)(c1ccccc1)c1ccccc1
- Reduction (Schistosoma mansoni [1]): 22.8%
- Activity (Schistosoma mansoni [2]): -70.3
- Probability (Schistosoma mansoni [3]): <0.001

Structure (SMILES): Br.Br.NCCCCC[PH](c1ccccc1)(c1ccccc1)c1ccccc1
- Reduction (Schistosoma mansoni [1]): 13.1%
- Activity (Schistosoma mansoni [2]): -81.3
- Probability (Schistosoma mansoni [3]): <0.05

Structure (SMILES): [Br-].c1ccc(C[P+](c2ccccc2)(c2ccccc2)c2ccccc2)cc1
- Reduction (Schistosoma mansoni [1]): 27.1%
- Activity (Schistosoma mansoni [2]): -55.1
- Probability (Schistosoma mansoni [3]): <0.05

Structure (SMILES): Br.Br.CCCNCCC[PH](c1ccccc1)(c1ccccc1)c1ccccc1
- Reduction (Schistosoma mansoni [1]): 0.97%
- Activity (Schistosoma mansoni [2]): -71.7
- Probability (Schistosoma mansoni [4]): No significance

Structure (SMILES): [Br-].[Br-].c1ccc([P+](CC[P+](c2ccccc2)(c2ccccc2)c2ccccc2)(c2ccccc2)c2ccccc2)cc1
- Reduction (Schistosoma mansoni [1]): 117.8%
- Activity (Schistosoma mansoni [2]): 13.3
- Probability (Schistosoma mansoni [3]): <0.001

Structure (SMILES): Br.Br.CCNCCC[PH](c1ccccc1)(c1ccccc1)c1ccccc1
- Reduction (Schistosoma mansoni [1]): 18.6%
- Activity (Schistosoma mansoni [2]): -72
- Probability (Schistosoma mansoni [3]): <0.05

Structure (SMILES): [Br-].[Br-].c1ccc([P+](CCCCC[P+](c2ccccc2)(c2ccccc2)c2ccccc2)(c2ccccc2)c2ccccc2)cc1
- Reduction (Schistosoma mansoni [1]): 76.1%
- Activity (Schistosoma mansoni [2]): -19.7
- Probability (Schistosoma mansoni [3]): <0.001

Structure (SMILES): BrCCC[P+](c1ccccc1)(c1ccccc1)c1ccccc1.[Br-]
- Reduction (Schistosoma mansoni [1]): 45.3%
- Activity (Schistosoma mansoni [2]): -35
- Probability (Schistosoma mansoni [3]): <0.01

Structure (SMILES): N#CCCC[P+](c1ccccc1)(c1ccccc1)c1ccccc1.[Br-]
- Reduction (Schistosoma mansoni [1]): 10.3%
- Activity (Schistosoma mansoni [2]): -73
- Probability (Schistosoma mansoni [4]): No significance

Structure (SMILES): Br.Br.CCCCCCNCCC[PH](c1ccccc1)(c1ccccc1)c1ccccc1
- Reduction (Schistosoma mansoni [1]): 62.4%
- Activity (Schistosoma mansoni [2]): -35.4
- Probability (Schistosoma mansoni [3]): <0.0001

Structure (SMILES): Br.Br.NCC[PH](c1ccccc1)(c1ccccc1)c1ccccc1
- Reduction (Schistosoma mansoni [1]): 14.6%
- Activity (Schistosoma mansoni [2]): -67.8
- Probability (Schistosoma mansoni [4]): No significance

Structure (SMILES): [Br-].[Br-].c1ccc([P+](CCCCCC[P+](c2ccccc2)(c2ccccc2)c2ccccc2)(c2ccccc2)c2ccccc2)cc1
- Reduction (Schistosoma mansoni [1]): 94.3%
- Activity (Schistosoma mansoni [2]): -4.6
- Probability (Schistosoma mansoni [3]): <0.001

Structure (SMILES): [Br-].[Br-].c1ccc([P+](CCC[P+](c2ccccc2)(c2ccccc2)c2ccccc2)(c2ccccc2)c2ccccc2)cc1
- Reduction (Schistosoma mansoni [1]): 102.6%
- Activity (Schistosoma mansoni [2]): 2
- Probability (Schistosoma mansoni [3]): <0.001
